# In patent US12564638B2 (SHANGHAITECH UNIVERSITY, priority 2019, dated 2026):
# Like-named read-outs stand apart in the source and are kept apart here.
# What was measured:
# Assay type in all cases: cell-based
# [1] = test system: HCC827 cells (EGFR Exon19 del, non-small cell lung cancer cells); assay: Cell viability assay (WST/CCK8), HCC827 cells; details: Homo sapiens, HCC827, 72 h, HCC827 (Exon19 Del), 72 hours, read-out: IC50 (half inhibitory concentration)
# Outline: (§1)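 Cells seeded at 3 000/well in RPMI1640 complete medium, dosed next day with compounds (top 10 μM, 3-fold, 10 points) for 72 h. Viability read with WST (CCK8) reagent; DMSO as negative control, EGFR TKIs as positive controls; IC50 determined.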
# [2] = test system: PC9 cells (EGFR Exon 19 del, non-small cell lung cancer cells); assay: Cell viability assay (WST/CCK8), PC9 cells; details: Homo sapiens, PC-9, 72 hours, read-out: IC50 (half inhibitory concentration)
# Outline: as §1
# [3] = test system: PC9 DCT (Del19+T790M+C797S) cells; assay: Cell viability assay, PC9 cells with EGFR triple mutation; details: Homo sapiens, PC-9; Table 9; PC9 (Del + T790M + C797S), EGFR triple mutations; read-out: IC50 (half inhibitory concentration)
# From the text: Construction of EGFR triple mutant cell line PC9 DCT (Dell9+T790M+C797S): The cDNA expressing human EGFR was cloned into pLVX vector, and exon 19 deletion mutation (746-750) and T790M mutation were introduced by point mutation and C797S mutation. Transferred into PC9 cells by lentiviral packaging. Cells stably expressing EGFR triple mutations were obtained by fluorescence screening.
# The cDNA sequence expressing human EGFR was cloned into a pLVX vector (GFP^+), and then introduce the EGFR exon 19 deletion (746-750), exon 20 T790M and C797S mutations by were generated by site-directed mutagenesis. The PC9 cells were infected with lentivirus containing the indicated EGFR mutations, and the cells stably expressing EGFR triple mutation were obtained by fluorescence screening.
# All of the half inhibitory concentrations (IC50) of these compounds of the present invention were determined with WST reagent from Fuyuan Biotec Company. The specific experiment procedures are as follows: Cancer cells were planted in 96-well-plate at the density of 3 000 cells per well with 100 μL RPMI1640 completed culture medium. In the next day, compounds with indicated concentrations were added to the cells, DMSO was used as the negative control and the EGFR TKIs were used to treat cells as the positive groups. After 72 hours drug treatment, cell viability was measured by using the WST reagent following the instructions. The growth inhibition curve of the compounds on cells were plotted by Prism GraphPad, and the compounds IC50 calculated from it.
# The cell viability assays were taken to determine the anti-tumor activity of these indicated compounds in PC9 cells, which overexpressed Exon 19del+T790M+C797S triple mutant EGFR.
# [4] = test system: BT474 cells (HER2 positive breast cancer cells); assay: Cell viability assay (CCK8), BT474 cells; details: Homo sapiens, BT-474, Table 10, BT474, 72 hours, read-out: IC50 (half inhibitory concentration)
# Outline: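 HER2-overexpressing BT474 cells in RPMI1640 were exposed to compounds for 72 hours over 10 concentrations (3-fold dilution, top 10 μM). Viability was measured with CCK8 reagent against a DMSO control, and IC50 was taken from growth inhibition curves.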
# [5] = test system: H1975 (EGFR T790M+L858R mutation, non-small cell lung cancer cell line); assay: Cell viability assay (WST/CCK8), H1975 cells; details: Homo sapiens, NCI-H1975; Table 7, canertinib-based compounds; H1975 (L858R + T790M); read-out: IC50 (half inhibitory concentration)
# Outline: (§2)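 Cells seeded at 3 000 per well in RPMI1640 complete medium, dosed next day with compounds at indicated concentrations (DMSO negative control, EGFR TKIs as positive control).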
# [6] = test system: PC9BracA1 (EGFR Exon 19 del+T790M, non-small cell lung cancer cells); assay: Cell viability assay (WST/CCK8), PC9Brac1 cells; details: Table 7, canertinib-based compounds; PC9Brca1 (Ex19del + T790M); read-out: IC50 (half inhibitory concentration)
# Outline: as §2
# [7] = Table 3, poziotinib-based compounds, WST (CCK8)
# [8] = Table 3, poziotinib-based compounds, PC9 (Exon 19 Del), WST (CCK8)
# [9] = Table 6, canertinib-based compounds, WST
# [10] = Table 6, canertinib-based compounds, PC9 (Exon19 Del), WST
Compound,"IC50 [1, 7] [nM]",IC50 [3] [nM],other results
"COc1cc2ncnc(Nc3ccc(Cl)c(Cl)c3F)c2cc1OC1CCNCC1 [Poziotinib derivative A (SIAIS219149), N-(3,4-dichloro-2-fluorophenyl)-7-methoxy-6-(piperidin-4-yloxy)quinazolin-4-amine]",7.1,5.2,"IC50 [2, 8]: 17 nM; IC50 [4]: 81.2 nM"
"COc1cc2ncnc(Nc3ccc(Cl)c(Cl)c3F)c2cc1OC1CCN(C(=O)CSc2cccc3c2CN(C2CCC(=O)NC2=O)C3=O)CC1 (stereo not shown) [SIAIS219164, 3-(4-((2-(4-((4-((3,4-dichloro-2-fluorophenyl)amino)-7-methoxyquinazolin-6-yl)oxy)piperidin-1-yl)-2-oxoethyl)thio)-1-oxoisoindolin-2-yl)piperidine-2,6-dione]",33,4.8,–
"COc1cc2ncnc(Nc3ccc(Cl)c(Cl)c3F)c2cc1OC1CCN(C(=O)CCCSc2cccc3c2CN(C2CCC(=O)NC2=O)C3=O)CC1 (stereo not shown) [SIAIS219166, 3-(4-((4-(4-((4-((3,4-dichloro-2-fluorophenyl)amino)-7-methoxyquinazolin-6-yl)oxy)piperidin-1-yl)-4-oxobutyl)thio)-1-oxoisoindolin-2-yl)piperidine-2,6-dione]",30,4.6,–
"COc1cc2ncnc(Nc3ccc(Cl)c(Cl)c3F)c2cc1OC1CCN(C(=O)CCCCCSc2cccc3c2CN(C2CCC(=O)NC2=O)C3=O)CC1 (stereo not shown) [SIAIS219168, 3-(4-((6-(4-((4-((3,4-dichloro-2-fluorophenyl)amino)-7-methoxyquinazolin-6-yl)oxy)piperidin-1-yl)-6-oxohexyl)thio)-1-oxoisoindolin-2-yl)piperidine-2,6-dione]",40,2.9,–
"COc1cc2ncnc(Nc3ccc(Cl)c(Cl)c3F)c2cc1OC1CCN(C(=O)CCCNc2cccc3c2C(=O)N(C2CCC(=O)NC2=O)C3=O)CC1 (stereo not shown) [SIAIS219179, 4-((4-(4-((4-((3,4-dichloro-2-fluorophenyl)amino)-7-methoxyquinazolin-6-yl)oxy)piperidin-1-yl)-4-oxobutyl)amino)-2-(2,6-dioxopiperidin-3-yl)isoindoline-1,3-dione]",20.2,3.9,–
"COc1cc2ncnc(Nc3ccc(Cl)c(Cl)c3F)c2cc1OC1CCN(C(=O)CCCSc2cccc3c2C(=O)N(C2CCC(=O)NC2=O)C3=O)CC1 (stereo not shown) [SIAIS249016, 4-((4-(4-((4-((3,4-dichloro-2-fluorophenyl)amino)-7-methoxyquinazolin-6-yl)oxy)piperidin-1-yl)-4-oxobutyl)thio)-2-(2,6-dioxopiperidin-3-yl)isoindoline-1,3-dione]",29,1.5,–
"C=CC(=O)Nc1cc2c(Nc3ccc(F)c(Cl)c3)ncnc2cc1OCCCN1CCC(N2CCN(C(=O)CCCCCNc3cccc4c3C(=O)N(C3CCC(=O)NC3=O)C4=O)CC2)CC1 (stereo not shown) [SIAIS262178, N-(4-((3-chloro-4-fluorophenyl)amino)-7-(3-(4-(4-(6-((2-(2,6-dioxopiperidin-3-yl)-1,3-dioxoisoindolin-4-yl)amino)hexanoyl)piperazin-1-yl)piperidin-1-yl)propoxy)quinazolin-6-yl)acrylamide]",–,–,"IC50 [1, 9]: 5.2 nM; IC50 [2, 10]: 0.4 nM; IC50 [5]: 38 nM; IC50 [6]: 69 nM; IC50 [4]: 2.1 nM"
"C=CC(=O)Nc1cc2c(Nc3ccc(F)c(Cl)c3)ncnc2cc1OCCCN1CCC(N2CCN(C(=O)CCCCCCNc3cccc4c3C(=O)N(C3CCC(=O)NC3=O)C4=O)CC2)CC1 (stereo not shown) [SIAIS262179, N-(4-((3-chloro-4-fluorophenyl)amino)-7-(3-(4-(4-(7-((2-(2,6-dioxopiperidin-3-yl)-1,3-dioxoisoindolin-4-yl)amino)heptanoyl)piperazin-1-yl)piperidin-1-yl)propoxy)quinazolin-6-yl)acrylamide]",–,–,"IC50 [1, 9]: 2.5 nM; IC50 [2, 10]: 10.3 nM; IC50 [5]: 43 nM; IC50 [6]: 181 nM; IC50 [4]: 14.6 nM"

# More lines, main results first:
"IC50 [1, 7] [nM]",IC50 [3] [nM],Compound,other results
23,4.6,"COc1cc2ncnc(Nc3ccc(Cl)c(Cl)c3F)c2cc1OC1CCN(C(=O)CCSc2cccc3c2CN(C2CCC(=O)NC2=O)C3=O)CC1 (stereo not shown) [SIAIS219165, 3-(4-((3-(4-((4-((3,4-dichloro-2-fluorophenyl)amino)-7-methoxyquinazolin-6-yl)oxy)piperidin-1-yl)-3-oxopropyl)thio)-1-oxoisoindolin-2-yl)piperidine-2,6-dione]","IC50 [2, 8]: 3 nM; IC50 [4]: 2.7 nM"
31,4.1,"COc1cc2ncnc(Nc3ccc(Cl)c(Cl)c3F)c2cc1OC1CCN(C(=O)CCCCSc2cccc3c2CN(C2CCC(=O)NC2=O)C3=O)CC1 (stereo not shown) [SIAIS219167, 3-(4-((5-(4-((4-((3,4-dichloro-2-fluorophenyl)amino)-7-methoxyquinazolin-6-yl)oxy)piperidin-1-yl)-5-oxopentyl)thio)-1-oxoisoindolin-2-yl)piperidine-2,6-dione]",–
38,3.6,"COc1cc2ncnc(Nc3ccc(Cl)c(Cl)c3F)c2cc1OC1CCN(C(=O)CCCCCCSc2cccc3c2CN(C2CCC(=O)NC2=O)C3=O)CC1 (stereo not shown) [SIAIS219169, 3-(4-((7-(4-((4-((3,4-dichloro-2-fluorophenyl)amino)-7-methoxyquinazolin-6-yl)oxy)piperidin-1-yl)-7-oxoheptyl)thio)-1-oxoisoindolin-2-yl)piperidine-2,6-dione]",–
26.7,3.3,"COc1cc2ncnc(Nc3ccc(Cl)c(Cl)c3F)c2cc1OC1CCN(C(=O)CCCCNc2cccc3c2C(=O)N(C2CCC(=O)NC2=O)C3=O)CC1 (stereo not shown) [SIAIS219180, 4-((5-(4-((4-((3,4-dichloro-2-fluorophenyl)amino)-7-methoxyquinazolin-6-yl)oxy)piperidin-1-yl)-5-oxopentyl)amino)-2-(2,6-dioxopiperidin-3-yl)isoindoline-1,3-dione]",–
23.1,3.8,"COc1cc2ncnc(Nc3ccc(Cl)c(Cl)c3F)c2cc1OC1CCN(C(=O)CCCCCNc2cccc3c2C(=O)N(C2CCC(=O)NC2=O)C3=O)CC1 (stereo not shown) [SIAIS219181, 4-((6-(4-((4-((3,4-dichloro-2-fluorophenyl)amino)-7-methoxyquinazolin-6-yl)oxy)piperidin-1-yl)-6-oxohexyl)amino)-2-(2,6-dioxopiperidin-3-yl)isoindoline-1,3-dione]",–
51,1.8,"COc1cc2ncnc(Nc3ccc(Cl)c(Cl)c3F)c2cc1OC1CCN(C(=O)CSc2cccc3c2C(=O)N(C2CCC(=O)NC2=O)C3=O)CC1 (stereo not shown) [SIAIS249014, 4-((2-(4-((4-((3,4-dichloro-2-fluorophenyl)amino)-7-methoxyquinazolin-6-yl)oxy)piperidin-1-yl)-2-oxoethyl)thio)-2-(2,6-dioxopiperidin-3-yl)isoindoline-1,3-dione]",–
23,2.2,"COc1cc2ncnc(Nc3ccc(Cl)c(Cl)c3F)c2cc1OC1CCN(C(=O)CCCCSc2cccc3c2C(=O)N(C2CCC(=O)NC2=O)C3=O)CC1 (stereo not shown) [SIAIS249017, 4-((5-(4-((4-((3,4-dichloro-2-fluorophenyl)amino)-7-methoxyquinazolin-6-yl)oxy)piperidin-1-yl)-5-oxopentyl)thio)-2-(2,6-dioxopiperidin-3-yl)isoindoline-1,3-dione]",–
